Series [1] in a line: Plasma concentration after intragastric administration to cynomolgus monkey (Test Example 2). The class given is in vivo. The settings on record: for AUC, area under the plasma concentration versus time curve / Cmax: male cynomolgus monkey, 3 mg/kg intragastric in 0.5% MC, LC-MS/MS, plasma; for AUC, area under the plasma concentration versus time curve: noncompartment model; for Cmax: po, read-out: Cmax, maximum concentration. How it is done:
Cynomolgus monkey (male) was used, and it was fasted from the day before administration of the test compound.
Administration samples were prepared by adding a 0.5% MC (methyl cellulose) solution to the Test Compound, so that the dose becomes 3 mg/2 mL/kg. Each of the administration samples was administered intragastrically to the cynomolgus monkey by using a tube. After the samples were administered, approximately 5 mL of 0.5% MC was administered. For each of the administration samples, a group of two cynomolgus monkeys was administered.
With respect to collection of blood, it was conducted by collecting approximately 0.5 mL of blood from crotch vein using a glass syringe treated with heparin, before administration, and 30 minutes, 1, 2, 4, 6, 8, 24 and 48 hours after administration. Blood was centrifuged (1,700×g, 15 min, 4° C.) to obtain plasma. Plasma was stored in a freezer (−20° C.) until pretreatment.
Preparation of standard solution and internal standard (IS) solution: Each of the Test Compounds was dissolved in DMSO (dimethyl sulfoxide) to prepare a solution of 10 mM each. Each of the compound solution was diluted with acetonitrile, and thus standard solution was prepared. Further, niflumic acid (Wako Pure Chemical Industries, Ltd.) was dissolved in DMSO at the concentration of 2 mM, followed by dilution with acetonitrile to prepare an IS solution of 2 μM.
Pretreatment of plasma samples: 20 μL of plasma sample was collected, and then 25 μL of purified water, 100 μL of acetonitrile, and 100 μL of methanol was added. For the preparation of a calibration curve, 25 μL of purified water, 20 μL of each of the standard solutions (acetonitrile solution), 80 μL of acetonitrile, and 100 μL of methanol were added to 20 μL of blank plasma. 40 μL of the acetonitrile solution of IS was added to all of the samples, and then the samples were stirred, filtered by suction using Captiva filter plate (Varian, Inc.), and then the filtrate was used as the sample for LC-MS/MS analysis.
Quantitative Determination of Test Compound: Concentration in plasma was analyzed by LC-MS/MS method for each Test Compound.
Analysis: Pharmacokinetic parameter was calculated from concentration of each of the drugs in plasma, by using WinNonlin Professional (Ver. 4.0.1, Pharsight Corporation). Here, Noncompartment model was used as the model for parameter calculation.

Series [2] concerns the target T1, human mineralocorticoid receptor (hMR) (Homo sapiens, UniProt P08235).
T1 construct: expressed in transfected cells; host or cells: HEK293
T1 sequence (P08235 726-964 limits assumed): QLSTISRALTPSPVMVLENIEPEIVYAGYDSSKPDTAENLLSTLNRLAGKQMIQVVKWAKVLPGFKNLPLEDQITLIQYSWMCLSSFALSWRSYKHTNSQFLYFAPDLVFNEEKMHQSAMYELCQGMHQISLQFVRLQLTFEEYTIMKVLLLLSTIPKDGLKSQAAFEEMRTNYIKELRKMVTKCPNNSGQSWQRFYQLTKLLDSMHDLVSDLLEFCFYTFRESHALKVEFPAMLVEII
As to the kind of experiment: GAL4-hMR-LBD luciferase reporter assay in HEK293 cells with 1 nM aldosterone (Test Example 1).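 As to Imax: 0% is DMSO-only control and 100% is 1 nM aldosterone alone.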 The class given is cell-based. The settings on record: for Emax: HEK293, read-out: Imax; for IC50: concentration showing Imax/2, HEK293, GAL4-hMR-LBD, 1 nM aldosterone, overnight, read-out: ICmax50. As for the experimental part:
A plasmid pM-hMR-LBD expressing GAL4-hMR receptor, which has a ligand binding domain (LBD, corresponding to approximately 308 amino acids at the carboxy terminus) of human mineralocorticoid receptor (hMR, NM_000901) bonded to a DNA binding domain of yeast transcription factor GAL4 (corresponding to 147 amino acids at the amino terminus), was prepared. Reporter assay was conducted by using a reporter plasmid (such as plasmid pFR-Luc of […] CLONING SYSTEMS) including a luciferase gene, having a sequence (UAS sequence) which binds to the DNA binding domain of GAL4.
The plasmid pM-hMR-LBD and the reporter plasmid as obtained above were gene transferred into renal cell line HEK293 of human fetus by lipofection. On the next day, cells were collected by trypsin treatment, and dispensed with DMEM culture medium containing 5% of FBS treated by activated charcoal, to a white 96-well plate (Costar) with the amount of 95 microliter per well.
The test compounds were used as dissolved in dimethyl sulfoxide at a predetermined concentration, and the test compounds suitably diluted with culture media were added to the cells on the white 96-well plate so that the final concentration becomes 0.1%. […] After the addition, cultivation was carried out overnight.
On the next day, the culture media was removed, and then luciferase substrate (Wako Pure Chemical Industries, Ltd.) was prepared in accordance with the attached document and were added to each well by 50 microliters. Stirring was conducted for approximately 30 minutes, and the amount of luminescence was measured for each well by using Analyst (Molecular Devices), to obtain luciferase activity. A graph which plots relative luciferase activity values, when the luciferase activity value of Control group 1 was taken as 0% and the luciferase activity value of Control group 2 was taken as 100%, for each of the amount of the test compound addition group was made.
A general note: A reporter such as luciferase makes a cellular process visible.

`Cc1c(C(=O)Nc2ccc(S(C)(=O)=O)cc2)cc(C[C@H](C)O)n1-c1ccc(F)cc1OC(F)F` (single isomer, unassigned) [Example 9 - isomer A]: in series [1], the “AUC, area under the plasma concentration versus time curve” value came out at 23950 ng·h/mL and the Cmax was found to be 2350 ng/mL. For the same compound, in series [2], the Emax came to 84% and the IC50 is 0.018 µM.

In the case of `Cc1cc(Cl)ccc1-n1c(CCF)cc(C(=O)Nc2ccc(S(C)(=O)=O)cc2)c1C` (single isomer, unassigned) [Example 51 - isomer A, 1-(4-Chloro-2-methylphenyl)-5-(2-fluoroethyl)-2-methyl-N-[4-(methylsulfonyl)phenyl]-1H-pyrrole-3-carboxamide], in series [1], the “AUC, area under the plasma concentration versus time curve” value stood at 10940 ng·h/mL and the Cmax was found to be 830 ng/mL. In series [2], the Emax is 124% and the IC50 is 0.011 µM.

In the case of `Cc1c(C(=O)Nc2ccc(S(C)(=O)=O)cc2)cc(C[C@H](C)O)n1-c1ccc(F)cc1OC(F)(F)F` (single isomer, unassigned) [Example 16 - isomer A], in series [1], the “AUC, area under the plasma concentration versus time curve” value is 13490 ng·h/mL and the Cmax was 1000 ng/mL. Moreover, in series [2], the Emax was found to be 101% and the IC50 worked out at 0.0036 µM.

`Cc1c(C(=O)Nc2ccc(S(C)(=O)=O)cc2)cc(C[C@H](C)O)n1-c1ccc(Cl)cc1-c1ccc(F)cc1` (single isomer, unassigned) [Example 50 - isomer B]: in series [2], the Emax was 104% and the IC50 turned out to be 0.0012 µM.

Consider `Cc1c(C(=O)Nc2ccc(S(C)(=O)=O)cc2)cc(CCO)n1-c1ccc(Cl)cc1C(F)(F)F` [Example 1, 1-[4-Chloro-2-(trifluoromethyl)phenyl]-5-(2-hydroxyethyl)-2-methyl-N-[4-(methylsulfonyl)phenyl]-1H-pyrrole-3-carboxamide], for which, in series [2], the Emax was 110% and the IC50 came to 0.011 µM.

Take `Cc1c(C(=O)Nc2ccc(S(C)(=O)=O)cc2)cc(C[C@H](C)O)n1-c1ccc(Cl)cc1C(F)(F)F` [Example 6, 1-[4-Chloro-2-(trifluoromethyl)phenyl]-5-[(2S)-2-hydroxypropyl]-2-methyl-N-[4-(methylsulfonyl)phenyl]-1H-pyrrole-3-carboxamide]: in series [2], the Emax amounted to 92% and the IC50 is 0.0062 µM.

Regarding `Cc1c(C(=O)Nc2ccc(S(C)(=O)=O)cc2)cc(C[C@H](C)O)n1-c1ccc(Cl)cc1-c1ccc(F)cc1` [Example 50, 1-(5-Chloro-4′-fluorobiphenyl-2-yl)-5-[(2S)-2-hydroxypropyl]-2-methyl-N-[4-(methylsulfonyl)phenyl]-1H-pyrrole-3-carboxamide], in series [2], the Emax came to 114% and the IC50 was determined as 0.0027 µM.

As for `Cc1c(C(=O)Nc2ccc(S(N)(=O)=O)c(Cl)c2)cc(C[C@H](C)O)n1-c1ccc(F)cc1C(F)(F)F` (single isomer, unassigned) [Example 12 - isomer B], the IC50 in series [2] is over 1 µM.

Take `Cc1c(C(=O)Nc2ccc(S(C)(=O)=O)cc2)cc(CCO)n1-c1ccc(F)cc1C(F)(F)F` [Example 62, 1-[4-Fluoro-2-(trifluoromethyl)phenyl]-5-(2-hydroxyethyl)-2-methyl-N-[4-(methylsulfonyl)phenyl]-1H-pyrrole-3-carboxamide]: in series [1], the “AUC, area under the plasma concentration versus time curve” value turned out to be 8060 ng·h/mL and the Cmax is 660 ng/mL. For the same compound, the “concentration in plasma compared with Reference compound A and Reference compound B” value in series [1] (summary of Table 16, cynomolgus monkey, 3 mg/kg) is recorded as “considerably improved concentration in plasma”.

`Cc1c(C(=O)Nc2ccc(S(C)(=O)=O)cc2)cc(C[C@H](C)O)n1-c1ccc(F)cc1C(F)(F)F` (single isomer, unassigned) [Example 5 - isomer B]: the IC50 in series [2] was over 1 µM.

For `Cc1c(C(=O)Nc2ccc(S(C)(=O)=O)cc2)cc(CCF)n1-c1ccc(F)cc1OC(F)F` [Example 54, 1-[2-(Difluoromethoxy)-4-fluorophenyl]-5-(2-fluoroethyl)-2-methyl-N-[4-(methylsulfonyl)phenyl]-1H-pyrrole-3-carboxamide], in series [2], the Emax is 75% and the IC50 is 0.014 µM.

Take `Cc1c(C(=O)Nc2ccc(S(C)(=O)=O)cc2)cc(C[C@H](C)O)n1-c1ccc(F)cc1OC(F)F` [Example 9, 1-[2-(Difluoromethoxy)-4-fluorophenyl]-5-[(2S)-2-hydroxypropyl]-2-methyl-N-[4-(methylsulfonyl)phenyl]-1H-pyrrole-3-carboxamide]: in series [2], the Emax was found to be 114% and the IC50 came to 0.041 µM.

For the compound `Cc1c(C(=O)Nc2ccc(S(C)(=O)=O)cc2)cc(C[C@H](C)O)n1-c1ccc(Cl)cc1-c1ccc(F)cc1` (single isomer, unassigned) [Example 50 - isomer A], the IC50 in series [2] was over 1 µM.

Take `Cc1c(C(=O)Nc2ccc(S(C)(=O)=O)cc2)cc(CCO)n1-c1ccc(F)cc1Cl` (single isomer, unassigned) [Example 3 - isomer A, 1-(2-Chloro-4-fluorophenyl)-5-(2-hydroxyethyl)-2-methyl-N-[4-(methylsulfonyl)phenyl]-1H-pyrrole-3-carboxamide]: in series [2], the Emax was determined as 114% and the IC50 came out at 0.021 µM.

In the case of `Cc1c(C(=O)Nc2ccc(S(C)(=O)=O)cc2)cc(C[C@H](C)O)n1-c1ccc(Cl)cc1OC(F)F` [Example 11, 1-[4-Chloro-2-(difluoromethoxy)phenyl]-5-[(2S)-2-hydroxypropyl]-2-methyl-N-[4-(methylsulfonyl)phenyl]-1H-pyrrole-3-carboxamide], in series [2], the Emax was found to be 107% and the IC50 turned out to be 0.013 µM.

On to `Cc1c(C(=O)Nc2ccc(S(C)(=O)=O)cc2)cc(CCO)n1-c1ccc(F)cc1Cl` (single isomer, unassigned) [Example 3 - isomer B, 1-(2-Chloro-4-fluorophenyl)-5-(2-hydroxyethyl)-2-methyl-N-[4-(methylsulfonyl)phenyl]-1H-pyrrole-3-carboxamide], for which the IC50 in series [2] was over 1 µM.

Consider `Cc1c(C(=O)Nc2ccc(S(C)(=O)=O)cc2)cc(C[C@H](C)O)n1-c1ccc(F)cc1OC(F)F` (single isomer, unassigned) [Example 9 - isomer B], for which the IC50 in series [2] was over 1 µM.

Turning to `Cc1c(C(=O)Nc2ccc(S(C)(=O)=O)cc2)cc(CCO)n1-c1ccc(F)cc1Cl` [Example 3, 1-(2-Chloro-4-fluorophenyl)-5-(2-hydroxyethyl)-2-methyl-N-[4-(methylsulfonyl)phenyl]-1H-pyrrole-3-carboxamide], in series [2], the Emax was determined as 109% and the IC50 is 0.03 µM.

As for `Cc1c(C(=O)Nc2ccc(S(C)(=O)=O)cc2)cc(CC(=O)N(C)C)n1-c1ccc(Cl)cc1C(F)(F)F` [Example 61, 1-[4-Chloro-2-(trifluoromethyl)phenyl]-5-[2-(dimethylamino)-2-oxoethyl]-2-methyl-N-[4-(methylsulfonyl)phenyl]-1H-pyrrole-3-carboxamide], in series [2], the Emax is 115% and the IC50 was determined as 0.0055 µM.

These data come from patent US8642640B2, “1-phenylpyrrole derivatives” (Exelixis, Inc., priority 2008, dated 2014).
